The results in this text go back to patent US20230081426A1, “COMPOUNDS AND METHODS FOR KRAS MODULATION AND INDICATIONS THEREFOR” (Plexxikon Inc., priority 2020, published 2023).

T1 sequence (P01116 1-188 isoform P01116-2 G12D): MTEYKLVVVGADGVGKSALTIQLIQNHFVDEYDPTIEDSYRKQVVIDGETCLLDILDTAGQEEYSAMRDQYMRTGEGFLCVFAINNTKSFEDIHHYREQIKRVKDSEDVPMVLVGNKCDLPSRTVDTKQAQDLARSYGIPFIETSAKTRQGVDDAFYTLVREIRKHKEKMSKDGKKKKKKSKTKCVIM

This assay addresses T1, G12D-mutant human KRAS (amino acid residues 1-188) (Homo sapiens, UniProt P01116, G12D).
T1 construct: G12D or G12C-mutant human KRAS (amino acid residues 1-188) with FLAG tag; made in house; host or cells: E. coli
The assay is described as follows: KRAS Binding Disruption Assay (AlphaScreen; biotinylated KRpep-2d analogue or RAF1-RBD), G12D. To be noted: KRAS G12D; geometric mean; read-out: KRAS GMean IC50 (uM) MUTATION: G12D. The gist of the method:
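Displacement format with mutant KRAS, biotinylated KRpep-2d analogue or RAF1-RBD (5-20 nM each) at pH 7.5 with 5 mM MgCl2.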
(In general: In Alpha technology, singlet oxygen from a donor bead excites a nearby acceptor bead.)
In general, IC50 refers to the concentration that inhibits the measured activity by half. As for `CN1CC(F)(F)C[C@H]1COc1nc(N2C[C@H]3CC[C@@H](C2)N3)c2ccc(-c3cc(O)cc4ccccc34)c(F)c2n1` [P-0553, 4-(4-((1R,5S)-3,8-diazabicyclo[3.2.1]octan-3-yl)-2-(((S)-4,4-difluoro-1-methylpyrrolidin-2-yl)methoxy)-8-fluoroquinazolin-7-yl)naphthalen-2-ol], the 50% inhibitory concentration (IC50) lay within 0.0001 to 10 µM.

Regarding `CN1C[C@@H](F)C[C@H]1COc1nc(N2C[C@H]3CC[C@@H](C2)N3)c2ccc(-c3cc(O)cc4ccccc34)c(F)c2n1` [P-0554, 4-(4-((1R,5S)-3,8-diazabicyclo[3.2.1]octan-3-yl)-8-fluoro-2-(((2S,4S)-4-fluoro-1-methylpyrrolidin-2-yl)methoxy)quinazolin-7-yl)naphthalen-2-ol], the IC50 is 0.0001 to 10 µM.

Regarding `Oc1cc(-c2ccc3c(N4C[C@H]5CC[C@@H](C4)N5)nc(N4CC5(CCC5O)C4)nc3c2F)c2ccccc2c1` (stereo partly drawn) [P-0555, 2-(4-((1R,5S)-3,8-diazabicyclo[3.2.1]octan-3-yl)-8-fluoro-7-(3-hydroxynaphthalen-1-yl)quinazolin-2-yl)-2-azaspiro[3.3]heptan-5-ol], the IC50 was in the range of 0.0001 to 10 µM.

For the molecule `Oc1cc(-c2ccc3c(N4C[C@H]5CC[C@@H](C4)N5)nc(NCC4CCCC4O)nc3c2F)c2ccccc2c1` (stereo partly drawn) [P-0556, 4-(4-((1R,5S)-3,8-diazabicyclo[3.2.1]octan-3-yl)-8-fluoro-2-(((2-hydroxycyclopentyl)methyl)amino)quinazolin-7-yl)naphthalen-2-ol], the IC50 was 0.0001 to 10 µM.

As to `CNCC1CN(c2nc(N3C[C@H]4CC[C@@H](C3)N4)c3ccc(-c4cc(O)cc5ccccc45)c(F)c3n2)C1` [P-0557, 4-(4-((1R,5S)-3,8-diazabicyclo[3.2.1]octan-3-yl)-8-fluoro-2-(3-((methylamino)methyl)azetidin-1-yl)quinazolin-7-yl)naphthalen-2-ol], the IC50 was in the range of 0.0001 to 10 µM.

For `CCc1cccc2c1N(c1ncc3c(N4C[C@H]5CC[C@@H](C4)N5)nc(OCC45CCCN4CCC5)nc3c1F)CCC2` [P-0558, 4-((1R,5S)-3,8-diazabicyclo[3.2.1]octan-3-yl)-7-(8-ethyl-3,4-dihydroquinolin-1(2H)-yl)-8-fluoro-2-((tetrahydro-1H-pyrrolizin-7a(5H)-yl)methoxy)pyrido[4,3-d]pyrimidine], the IC50 fell in the range of 0.0001 to 10 µM.

For `CCc1cccc2c1N(c1ccc3c(N4C[C@H]5CC[C@@H](C4)N5)nc(OCC45CCCN4CCC5)nc3c1F)CCC2` [P-0559, 4-((1R,5S)-3,8-diazabicyclo[3.2.1]octan-3-yl)-7-(8-ethyl-3,4-dihydroquinolin-1(2H)-yl)-8-fluoro-2-((tetrahydro-1H-pyrrolizin-7a(5H)-yl)methoxy)quinazoline], the half-inhibitory concentration (IC50) lay within 0.0001 to 10 µM.

Take `CCc1cccc2c1N(c1ccc3c(N4C[C@H]5CC[C@@H](C4)N5)nc(OC[C@@H]4CCCN4C)nc3c1F)CCC2` [P-0560, 4-((1R,5S)-3,8-diazabicyclo[3.2.1]octan-3-yl)-7-(8-ethyl-3,4-dihydroquinolin-1(2H)-yl)-8-fluoro-2-(((S)-1-methylpyrrolidin-2-yl)methoxy)quinazoline]: the concentration for half-maximal inhibition (IC50) is 0.0001 to 10 µM.

`Fc1cc(Cl)c2c(-c3ccc4c(N5C[C@H]6CC[C@@H](C5)N6)nc(OCC56CCCN5CCC6)nc4c3F)c[nH]c2c1` [P-0561, 4-((1R,5S)-3,8-diazabicyclo[3.2.1]octan-3-yl)-7-(4-chloro-6-fluoro-1H-indol-3-yl)-8-fluoro-2-((tetrahydro-1H-pyrrolizin-7a(5H)-yl)methoxy)quinazoline]: the IC50 fell in the range of 0.0001 to 10 µM.

As for `Oc1cc(-c2nc(N3C[C@H]4CC[C@@H](C3)N4)c3ccc(-c4cc(O)cc5ccccc45)c(F)c3n2)c2ccccc2c1` [P-0562, 4,4′-(4-((1R,5S)-3,8-diazabicyclo[3.2.1]octan-3-yl)-8-fluoroquinazoline-2,7-diyl)bis(naphthalen-2-ol)], the 50% inhibitory concentration (IC50) fell in the range of 10 to 100 µM.

In the case of `Oc1cc(-c2ccc3c(N4C[C@H]5CC[C@@H](C4)N5)nc(N4CC5(CCC(O)C5)C4)nc3c2F)c2ccccc2c1` (stereo partly drawn) [P-0563, 2-(4-((1R,5S)-3,8-diazabicyclo[3.2.1]octan-3-yl)-8-fluoro-7-(3-hydroxynaphthalen-1-yl)quinazolin-2-yl)-2-azaspiro[3.4]octan-6-ol], the IC50 fell in the range of 0.0001 to 10 µM.

On to `OCCC1CN(c2nc(N3C[C@H]4CC[C@@H](C3)N4)c3ccc(-c4cc(O)cc5ccccc45)c(F)c3n2)C1` [P-0564, 4-(4-((1R,5S)-3,8-diazabicyclo[3.2.1]octan-3-yl)-8-fluoro-2-(3-(2-hydroxyethyl)azetidin-1-yl)quinazolin-7-yl)naphthalen-2-ol], for which the IC50 fell in the range of 0.0001 to 10 µM.

Turning to `CN(C)CC1CN(c2nc(N3C[C@H]4CC[C@@H](C3)N4)c3ccc(-c4cc(O)cc5ccccc45)c(F)c3n2)C1` [P-0565, 4-(4-((1R,5S)-3,8-diazabicyclo[3.2.1]octan-3-yl)-2-(3-((dimethylamino)methyl)azetidin-1-yl)-8-fluoroquinazolin-7-yl)naphthalen-2-ol], the IC50 was 0.0001 to 10 µM.

`Fc1c(-c2c[nH]c3cncc(Cl)c23)ccc2c(N3C[C@H]4CC[C@@H](C3)N4)nc(OCC34CCCN3CCC4)nc12` [P-0566, 4-((1R,5S)-3,8-diazabicyclo[3.2.1]octan-3-yl)-7-(4-chloro-1H-pyrrolo[2,3-c]pyridin-3-yl)-8-fluoro-2-((tetrahydro-1H-pyrrolizin-7a(5H)-yl)methoxy)quinazoline]: the half-inhibitory concentration (IC50) fell in the range of 0.0001 to 10 µM.

In the case of `COCc1cccc2[nH]cc(-c3ccc4c(N5C[C@H]6CC[C@@H](C5)N6)nc(OCC56CCCN5CCC6)nc4c3F)c12` [P-0567, 4-((1R,5S)-3,8-diazabicyclo[3.2.1]octan-3-yl)-8-fluoro-7-(4-(methoxymethyl)-1H-indol-3-yl)-2-((tetrahydro-1H-pyrrolizin-7a(5H)-yl)methoxy)quinazoline], the half-maximal inhibitory concentration (IC50) was in the range of 0.0001 to 10 µM.

With `CN(CC(C)(C)CO)c1nc(N2C[C@H]3CC[C@@H](C2)N3)c2ccc(-c3cc(O)cc4ccccc34)c(F)c2n1` [P-0568, 4-(4-((1R,5S)-3,8-diazabicyclo[3.2.1]octan-3-yl)-8-fluoro-2-((3-hydroxy-2,2-dimethylpropyl)(methyl)amino)quinaz-olin-7-yl)naphthalen-2-ol], the IC50 lay within 10 to 100 µM.

With `OCC1(COc2nc(N3C[C@H]4CC[C@@H](C3)N4)c3ccc(-c4cc(O)cc5ccccc45)c(F)c3n2)CC2(CCC2)C1` [P-0569, 4-(4-((1R,5S)-3,8-diazabicyclo[3.2.1]octan-3-yl)-8-fluoro-2-((2-(hydroxymethyl)spiro[3.3]heptan-2-yl)methoxy)quinazolin-7-yl)naphthalen-2-ol], the IC50 is 0.0001 to 10 µM.

In the case of `Fc1c(-c2cccc3cccc(Cl)c23)ccc2c(N3C[C@H]4CC[C@@H](C3)N4)nc(OCC34CCCN3CCC4)nc12` [P-0570, 4-((1R,5S)-3,8-diazabicyclo[3.2.1]octan-3-yl)-7-(8-chloronaphthalen-1-yl)-8-fluoro-2-((tetrahydro-1H-pyrrolizin-7a(5H)-yl)methoxy)quinazoline], the half-maximal inhibitory concentration (IC50) is 0.0001 to 10 µM.

On to `Fc1c(-c2cccc3cccc(Br)c23)ccc2c(N3C[C@H]4CC[C@@H](C3)N4)nc(OCC34CCCN3CCC4)nc12` [P-0571, 4-((1R,5S)-3,8-diazabicyclo[3.2.1]octan-3-yl)-7-(8-bromonaphthalen-1-yl)-8-fluoro-2-((tetrahydro-1H-pyrrolizin-7a(5H)-yl)methoxy)quinazoline], for which the IC50 lay in the range of 0.0001 to 10 µM.

For `Fc1c(-c2cncc3cccc(Cl)c23)ccc2c(N3C[C@H]4CC[C@@H](C3)N4)nc(OCC34CCCN3CCC4)nc12` [P-0572, 4-((1R,5S)-3,8-diazabicyclo[3.2.1]octan-3-yl)-7-(5-chloroisoquinolin-4-yl)-8-fluoro-2-((tetrahydro-1H-pyrrolizin-7a(5H)-yl)methoxy)quinazoline], the IC50 lay in the range of 0.0001 to 10 µM.

Turning to `COCCc1cccc2[nH]cc(-c3ccc4c(N5C[C@H]6CC[C@@H](C5)N6)nc(OCC56CCCN5CCC6)nc4c3F)c12` [P-0573, 4-((1R,5S)-3,8-diazabicyclo[3.2.1]octan-3-yl)-8-fluoro-7-(4-(2-methoxyethyl)-1H-indol-3-yl)-2-((tetrahydro-1H-pyrrolizin-7a(5H)-yl)methoxy)quinazoline], the IC50 fell in the range of 0.0001 to 10 µM.

`OCc1cccc2[nH]cc(-c3ccc4c(N5C[C@H]6CC[C@@H](C5)N6)nc(OCC56CCCN5CCC6)nc4c3F)c12` [P-0574, (3-(4-((1R,5S)-3,8-diazabicyclo[3.2.1]octan-3-yl)-8-fluoro-2-((tetrahydro-1H-pyrrolizin-7a(5H)-yl)methoxy)quinazolin-7-yl)-1H-indol-4-yl)methanol]: the IC50 lay within 0.0001 to 10 µM.

In the case of `CC(C)C(COC(=O)C(F)(F)F)COc1nc(N2C[C@H]3CC[C@@H](C2)N3)c2ccc(-c3cc(O)cc4ccccc34)c(F)c2n1` (stereo partly drawn) [P-0575, 2-(((4-((1R,5S)-3,8-diazabicyclo[3.2.1]octan-3-yl)-8-fluoro-7-(3-hydroxynaphthalen-1-yl)quinazolin-2-yl)oxy)methyl)-3-methylbutyl 2,2,2-trifluoroacetate], the concentration for half-maximal inhibition (IC50) was 0.0001 to 10 µM.

Turning to `OCC1(C(F)(F)F)CCN(c2nc(N3C[C@H]4CC[C@@H](C3)N4)c3ccc(-c4cc(O)cc5ccccc45)c(F)c3n2)C1` (stereo partly drawn) [P-0576, 4-(4-((1R,5S)-3,8-diazabicyclo[3.2.1]octan-3-yl)-8-fluoro-2-(3-(hydroxymethyl)-3-(trifluoromethyl)pyrrolidin-1-yl)quinazolin-7-yl)naphthalen-2-ol], the half-maximal inhibitory concentration (IC50) was in the range of 0.0001 to 10 µM.

Regarding `NC1(CO)CN(c2nc(N3C[C@H]4CC[C@@H](C3)N4)c3ccc(-c4cc(O)cc5ccccc45)c(F)c3n2)C1` [P-0577, 4-(2-(3-amino-3-(hydroxymethyl)azetidin-1-yl)-4-((1R,5S)-3,8-diazabicyclo[3.2.1]octan-3-yl)-8-fluoroquinazolin-7-yl)naphthalen-2-ol], the 50% inhibitory concentration (IC50) fell in the range of 0.0001 to 10 µM.

As to `CCC1(N)CN(c2nc(N3C[C@H]4CC[C@@H](C3)N4)c3ccc(-c4cc(O)cc5ccccc45)c(F)c3n2)C1` [P-0578, 4-(2-(3-amino-3-ethylazetidin-1-yl)-4-((1R,5S)-3,8-diazabicyclo[3.2.1]octan-3-yl)-8-fluoroquinazolin-7-yl)naphthalen-2-ol], the IC50 lay in the range of 0.0001 to 10 µM.
